In experiment [1] the test system is beet armyworm (BAW; Spodoptera exigua: Lepidoptera). The experiment in a line: 128-well diet tray assay on beet armyworm (BAW 50). It is filed as in vivo. As to conditions: 128-well diet tray assay, 50 μg/cm^2 of test compound on diet, second instar BAW larvae, mortality class. Put shortly: (§1)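 Two diet-incorporation-style surface tests were run. Eggs infested treated diet (12 μg/well) in plates incubated dark at 29° C, with mortality taken on day 6 from six replicates. Separately, second-instar larvae fed on treated diet (50 μg/cm^2) at 25° C, 14:10 L:D, with six-day mortality averaged over eight wells.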

Experiment [2] has the same test system. Nature of the experiment: 96-well microtiter plate-based high throughput (HTS) diet bioassay on beet armyworm (BAW HTS). The format is in vivo. Conditions: 12 μg test compound per well, BAW eggs, mortality at 6 d post-treatment, mortality class. In outline: as §1
Where [3] appears, read: 96-well microtiter plate HTS diet assay.

Molecules are shown by their SMILES. Bounds are passed on as bounds.

With `CO[C@@H]1[C@@H](OC)[C@H](C)O[C@@H](O/N=C/c2ccc(-c3ccnc(-c4ccc(OC(F)(F)F)cc4)c3)cc2)[C@@H]1OC` [Compound 132], the “BAW 50 ug/cm2” value in experiment [1] is “A (the compound was tested and at least 50 percent mortality was observed)”. Moreover, in experiment [1] (Spodoptera exigua, 144 h, read-out: BAW 50 ug/cm2), the pest or weed control at 50 µg/cm2, 50 µg/cm2 is greater than 50%. In addition, in experiment [2] (setting [3]), the “BAW HTS” value is “B (either (1) the compound was tested and less than 50 percent mortality was observed or (2) the compound was not tested)”. Further, the pest or weed control at 12 µg/well, 12 µg/well in experiment [2] (Spodoptera exigua, 144 h, 96-well HTS diet assay, read-out: BAW HTS) is less than 50%.

In the case of `COC1C(C)OC(ON=Cc2ccc(-c3cc(-c4ccc(OC(F)(F)F)cc4)ccn3)cc2)C(OC)C1OC` (stereo not shown) [Compound 133], the “BAW 50 ug/cm2” value in experiment [1] was “A (the compound was tested and at least 50 percent mortality was observed)”. Also, the “BAW HTS” value is “B (either (1) the compound was tested and less than 50 percent mortality was observed or (2) the compound was not tested)” in experiment [2] (96-well HTS diet assay); “B (either (1) the compound was tested and less than 50 percent mortality was observed or (2) the compound was not tested)” in experiment [2] (setting [3]).

As to `COC1C(C)OC(ON=Cc2ccc(-c3cccc(-c4ccc(OC(F)(F)F)cc4)n3)cc2)C(OC)C1OC` (stereo not shown) [Compound 134], the “BAW 50 ug/cm2” value in experiment [1] is “A (the compound was tested and at least 50 percent mortality was observed)”. In addition, the “BAW HTS” value in experiment [2] (96-well HTS diet assay) is “B (either (1) the compound was tested and less than 50 percent mortality was observed or (2) the compound was not tested)”; in experiment [2] (setting [3]) it was “B (either (1) the compound was tested and less than 50 percent mortality was observed or (2) the compound was not tested)”.

As to `COC1C(C)OC(ON=Cc2ccc(-c3cncc(-c4ccc(OC(F)(F)F)cc4)c3)cc2)C(OC)C1OC` (stereo not shown) [Compound 135], the “BAW 50 ug/cm2” value in experiment [1] was “A (the compound was tested and at least 50 percent mortality was observed)”. The “BAW HTS” value is “B (either (1) the compound was tested and less than 50 percent mortality was observed or (2) the compound was not tested)” in experiment [2] (96-well HTS diet assay); “B (either (1) the compound was tested and less than 50 percent mortality was observed or (2) the compound was not tested)” in experiment [2] (setting [3]).

For `COC1C(C)OC(ON=Cc2ccc(-c3ncc(-c4ccc(OC(F)(F)F)cc4)cn3)cc2)C(OC)C1OC` (stereo not shown) [Compound 136], the “BAW 50 ug/cm2” value in experiment [1] was “A (the compound was tested and at least 50 percent mortality was observed)”. Further, the “BAW HTS” value is “B (either (1) the compound was tested and less than 50 percent mortality was observed or (2) the compound was not tested)” in experiment [2] (96-well HTS diet assay); “B (either (1) the compound was tested and less than 50 percent mortality was observed or (2) the compound was not tested)” in experiment [2] (setting [3]).

Take `COC1C(C)OC(ON=Cc2ccc(-c3cnc(-c4ccc(OC(F)(F)F)cc4)nc3)cc2)C(OC)C1OC` (stereo not shown) [Compound 137]: the “BAW 50 ug/cm2” value in experiment [1] is “A (the compound was tested and at least 50 percent mortality was observed)”. Further, the “BAW HTS” value is “B (either (1) the compound was tested and less than 50 percent mortality was observed or (2) the compound was not tested)” in experiment [2] (96-well HTS diet assay); “B (either (1) the compound was tested and less than 50 percent mortality was observed or (2) the compound was not tested)” in experiment [2] (setting [3]).

Take `COC1C(C)OC(ON=Cc2ccc(-c3nccc(-c4ccc(OC(F)(F)F)cc4)n3)cc2)C(OC)C1OC` (stereo not shown) [Compound 138]: the “BAW 50 ug/cm2” value in experiment [1] is “A (the compound was tested and at least 50 percent mortality was observed)”. Besides, the “BAW HTS” value in experiment [2] (96-well HTS diet assay) was “A (the compound was tested and at least 50 percent mortality was observed)”; in experiment [2] (setting [3]), “A (the compound was tested and at least 50 percent mortality was observed)”.

Regarding `COC1C(C)OC(ON=Cc2ccc(-c3ccnc(-c4ccc(OC(F)(F)F)cc4)n3)cc2)C(OC)C1OC` (stereo not shown) [Compound 139], in experiment [1], the “BAW 50 ug/cm2” value is “A (the compound was tested and at least 50 percent mortality was observed)”. The “BAW HTS” value in experiment [2] (96-well HTS diet assay) was “A (the compound was tested and at least 50 percent mortality was observed)”; in experiment [2] (setting [3]), “A (the compound was tested and at least 50 percent mortality was observed)”.

Take `COC1C(C)OC(ON=Cc2ccc(-c3cc(-c4ccc(OC(F)(F)F)cc4)ncn3)cc2)C(OC)C1OC` (stereo not shown) [Compound 140]: the “BAW 50 ug/cm2” value in experiment [1] was “A (the compound was tested and at least 50 percent mortality was observed)”. The “BAW HTS” value in experiment [2] (96-well HTS diet assay) is “B (either (1) the compound was tested and less than 50 percent mortality was observed or (2) the compound was not tested)”; in experiment [2] (setting [3]), “B (either (1) the compound was tested and less than 50 percent mortality was observed or (2) the compound was not tested)”.

On to `CO[C@@H]1[C@@H](OC)[C@H](C)O[C@@H](O/N=C/c2ccc(-c3ncc(-c4ccc(OC(F)(F)C(F)(F)F)cc4)cn3)cc2)[C@@H]1OC` [Compound 141], for which, in experiment [1], the “BAW 50 ug/cm2” value was “A (the compound was tested and at least 50 percent mortality was observed)”. Also, the “BAW HTS” value in experiment [2] (96-well HTS diet assay) was “A (the compound was tested and at least 50 percent mortality was observed)”; in experiment [2] (setting [3]), “A (the compound was tested and at least 50 percent mortality was observed)”.

In the case of `CCOC1C(OC)C(C)OC(ON=Cc2ccc(-c3ncc(-c4ccc(OC(F)(F)C(F)(F)F)cc4)cn3)cc2)C1OC` (stereo not shown) [Compound 142], the “BAW 50 ug/cm2” value in experiment [1] was “A (the compound was tested and at least 50 percent mortality was observed)”. The “BAW HTS” value in experiment [2] (96-well HTS diet assay) is “A (the compound was tested and at least 50 percent mortality was observed)”; in experiment [2] (setting [3]), “A (the compound was tested and at least 50 percent mortality was observed)”.

Take `CCOC1C(OC)C(C)OC(ON=Cc2ccc(-c3ncc(-c4cccc(OC(F)(F)F)c4)cn3)cc2)C1OC` (stereo not shown) [Compound 143]: the “BAW 50 ug/cm2” value in experiment [1] was “A (the compound was tested and at least 50 percent mortality was observed)”. Besides, the “BAW HTS” value was “B (either (1) the compound was tested and less than 50 percent mortality was observed or (2) the compound was not tested)” in experiment [2] (96-well HTS diet assay); “B (either (1) the compound was tested and less than 50 percent mortality was observed or (2) the compound was not tested)” in experiment [2] (setting [3]).

`CCCOC1C(OC)C(C)OC(ON=Cc2ccc(-c3ncc(-c4ccc(OC(F)(F)F)cc4)cn3)cc2)C1OC` (stereo not shown) [Compound 144]: in experiment [1], the “BAW 50 ug/cm2” value is “A (the compound was tested and at least 50 percent mortality was observed)”. The “BAW HTS” value in experiment [2] (96-well HTS diet assay) was “B (either (1) the compound was tested and less than 50 percent mortality was observed or (2) the compound was not tested)”; in experiment [2] (setting [3]), “B (either (1) the compound was tested and less than 50 percent mortality was observed or (2) the compound was not tested)”.

On to `CCOC1C(OC)C(C)OC(ON=Cc2cccc(-c3ncc(-c4ccc(OC(F)(F)F)cc4)cn3)c2)C1OC` (stereo not shown) [Compound 146], for which the “BAW 50 ug/cm2” value in experiment [1] was “A (the compound was tested and at least 50 percent mortality was observed)”. The “BAW HTS” value in experiment [2] (96-well HTS diet assay) is “B (either (1) the compound was tested and less than 50 percent mortality was observed or (2) the compound was not tested)”; in experiment [2] (setting [3]), “B (either (1) the compound was tested and less than 50 percent mortality was observed or (2) the compound was not tested)”.

`CCOC1C(OC)C(C)OC(ON=Cc2cccc(-c3ncc(-c4ccccc4OC(F)(F)F)cn3)c2)C1OC` (stereo not shown) [Compound 147]: the “BAW 50 ug/cm2” value in experiment [1] is “B (either (1) the compound was tested and less than 50 percent mortality was observed or (2) the compound was not tested)”. The “BAW HTS” value in experiment [2] (96-well HTS diet assay) was “B (either (1) the compound was tested and less than 50 percent mortality was observed or (2) the compound was not tested)”; in experiment [2] (setting [3]) it was “B (either (1) the compound was tested and less than 50 percent mortality was observed or (2) the compound was not tested)”.

For the molecule `CCOC1C(OC)C(C)OC(ON=Cc2ccc(-c3ncc(-c4ccc(OC(F)(F)F)cc4)cn3)cc2F)C1OC` (stereo not shown) [Compound 148], the “BAW 50 ug/cm2” value in experiment [1] was “A (the compound was tested and at least 50 percent mortality was observed)”. Moreover, the “BAW HTS” value in experiment [2] (96-well HTS diet assay) is “B (either (1) the compound was tested and less than 50 percent mortality was observed or (2) the compound was not tested)”; in experiment [2] (setting [3]), “B (either (1) the compound was tested and less than 50 percent mortality was observed or (2) the compound was not tested)”.

Take `CCOC1C(OC)C(C)OC(ON=Cc2cccc(-c3ncc(-c4cccc(OC(F)(F)F)c4)cn3)c2)C1OC` (stereo not shown) [Compound 149]: the “BAW 50 ug/cm2” value in experiment [1] is “A (the compound was tested and at least 50 percent mortality was observed)”. The “BAW HTS” value in experiment [2] (96-well HTS diet assay) is “B (either (1) the compound was tested and less than 50 percent mortality was observed or (2) the compound was not tested)”; in experiment [2] (setting [3]) it was “B (either (1) the compound was tested and less than 50 percent mortality was observed or (2) the compound was not tested)”.

Turning to `CCOC1C(OC)C(C)OC(ON=Cc2ccc(-c3ncc(-c4ccc(C)cc4)cn3)cc2)C1OC` (stereo not shown) [Compound 150], the “BAW 50 ug/cm2” value in experiment [1] was “B (either (1) the compound was tested and less than 50 percent mortality was observed or (2) the compound was not tested)”. The “BAW HTS” value in experiment [2] (96-well HTS diet assay) was “B (either (1) the compound was tested and less than 50 percent mortality was observed or (2) the compound was not tested)”; in experiment [2] (setting [3]) it was “B (either (1) the compound was tested and less than 50 percent mortality was observed or (2) the compound was not tested)”.

Regarding `CCOC1C(OC)C(C)OC(ON=Cc2ccc(-c3ncc(-c4ccc(C(F)(F)F)cc4)cn3)cc2)C1OC` (stereo not shown) [Compound 151], the “BAW 50 ug/cm2” value in experiment [1] is “A (the compound was tested and at least 50 percent mortality was observed)”. For the same molecule, the “BAW HTS” value is “B (either (1) the compound was tested and less than 50 percent mortality was observed or (2) the compound was not tested)” in experiment [2] (96-well HTS diet assay); “B (either (1) the compound was tested and less than 50 percent mortality was observed or (2) the compound was not tested)” in experiment [2] (setting [3]).

The values are drawn from patent US8178658B2 (Dow AgroSciences, LLC, priority 2008, dated 2012).
